Molecules are shown by their SMILES. Where a name gives a salt, the structure may show the parent alone.

T1 sequence (P47898 whole entry): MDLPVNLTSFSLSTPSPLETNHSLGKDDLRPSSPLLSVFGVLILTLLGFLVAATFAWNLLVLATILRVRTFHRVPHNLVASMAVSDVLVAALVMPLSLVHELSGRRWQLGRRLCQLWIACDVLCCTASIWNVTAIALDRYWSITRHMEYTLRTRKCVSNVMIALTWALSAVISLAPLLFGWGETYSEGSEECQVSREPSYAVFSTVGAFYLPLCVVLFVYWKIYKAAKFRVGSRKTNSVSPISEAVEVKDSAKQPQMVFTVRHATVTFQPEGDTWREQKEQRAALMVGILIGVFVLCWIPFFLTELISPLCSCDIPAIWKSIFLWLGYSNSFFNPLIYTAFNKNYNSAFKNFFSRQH

This experiment concerns the target T1, h5-HT5A receptor (Homo sapiens, UniProt P47898).
T1 construct: expressed in transfected cells; host or cells: HEK293
Put plainly: [3H]5-CT binding assay h5-HT5A. As to conditions: membranes from HEK293 cells expressing h5-HT5A, 2.5 nM [3H]5-CT; read-out: Binding affinity 5-HT5A (Ki). Here is the method: 1. [^3H]5-CT binding assay h5-HT5A
Membranes from HEK293-cells, which permanently express the h5-HT5A receptor gene, were incubated in 100 mM Tris-HCl-buffer (pH 7.7), containing 1 mM EDTA in the presence of 2.5 nM [^3H]5-CT (600 μl total volume). The total binding is defined as the binding which is observed when the membranes are incubated alone in the presence of the radioligand. The inhibition induced by the compound is determined by incubation of cell membranes in the presence of the radioligand, and of different concentrations of the compound of interest. Unspecific binding is defined by the binding of [^3H]5-CT, which is obtained by incubation of the membranes as for the total binding but in the presence of 10 μM methiothepine. Following an incubation of 75 minutes at 30° C. the membrane suspension is filtered through GF/B-filters, wrapped in 0.03% PEI, wherein a Skatron® harvest system is used. The radioactivity retained in the filter is quantified by liquid scintillation counting.
In both assays, different concentrations of the test substances are used, and the Ki or the IC50 values are determined.
In general, Ki refers to a dissociation constant, usually derived from enzyme kinetics or from competition with a known ligand. With `CC(=O)Nc1cccc(OCCCNC(=N)Nc2nccs2)c1` [Example 22, N-[3-(3-{[imino(1,3-thiazole-2-ylamino)methyl]amino}propoxy)phenyl]acetamide], the inhibitory constant (Ki) was more than 500 nM.
Under `CC(=O)c1cccc(OCCCNC(=N)Nc2nccs2)c1` [Example 23, N-[3-(3-acetylphenoxy)propyl]-N′-1,3-thiazole-2-ylguanidine (2E)-But-2-endioate] stands more than 500 nM.
The result for `CNC(=Nc1nccs1)NCc1ccccc1OC` [Example 24, N-(2-methoxybenzyl)-N′-methyl-N″-1,3-thiazole-2-ylguanidine (2E)-But-2-endioate] reads more than 500 nM.
Under `CCNC(=Nc1nccs1)NCc1ccccc1OC` [Example 26, N-ethyl-N′-(2-methoxybenzyl)-N″-1,3-thiazole-2-ylguanidine (2E)-But-2-endioate] stands more than 500 nM.
On to `COc1cccc(OC)c1CNC(=N)Nc1nc2ccccc2s1` [Example 27, N-1,3-benzothiazole-2-yl-N′-(2,6-dimethoxybenzypguanidine (2E)-But-2-endioate], for which the Ki is less than 50 nM.
For `COc1ccccc1CNC(=N)Nc1nc2ccccc2s1` [Example 28, N-1,3-benzothiazole-2-yl-N′-(2-methoxybenzyl)guanidine (2E)-But-2-endioate], the Ki was 50 to 500 nM.
Under `N=C(NCCOc1ccccc1Cl)Nc1nccs1` [Example 29, N-[2-(2-chlorophenoxy)ethyl]-N′-1,3-thiazole-2-ylguanidine (2E)-But-2-endioate] stands 50 to 500 nM.
Under `COc1ccccc1CNC(=N)Nc1ccsc1` [Example 30, N-(2-methoxy-benzyl)-N′-thiophene-3-yl-guanidine acetate] stands 50 to 500 nM.
The result for `COc1ccccc1CNC(=N)Nc1nc(-c2ccccc2)cs1` [Example 31, N-(2-methoxybenzyl)-N′-(4-phenyl-1,3-thiazole-2-yl)guanidine] reads 50 to 500 nM; that for `COc1cccc(OC)c1CNC(=N)Nc1nc(C)cs1` [Example 32, N-(2,6-dimethoxybenzyl)-N′-(4-methyl-1,3-thiazole-2-yl)guanidine], less than 50 nM.
In the case of `COc1ccccc1CNC(=N)Nc1nc(-c2ccc3ccccc3c2)cs1` [Example 33, N-(2-methoxybenzyl)-N′-[4-(2-naphthyl)-1,3-thiazole-2-yl]guanidine], the inhibition constant Ki was less than 50 nM.
The result for `COc1cccc(OC)c1CNC(=N)Nc1nc(-c2ccc3ccccc3c2)cs1` [Example 34, N-(2,6-dimethoxybenzyl)-N′-[4-(2-naphthyl)-1,3-thiazole-2-yl]guanidine] reads less than 50 nM; that for `COc1ccccc1CNC(=N)Nc1nc(-c2ccc(Cl)cc2)cs1` [Example 35, N-[4-(4-chlorophenyl)-1,3-thiazole-2-yl]-N′-(2-methoxybenzyl)guanidine], more than 500 nM; that for `COc1cccc(OC)c1CNC(=N)Nc1nc(C(C)(C)C)cs1` [Example 36, N-(4-tert-butyl-1,3-thiazole-2-yl)-N′-(2,6-dimethoxybenzyl)guanidine], less than 50 nM.
Under `COc1ccccc1CNC(=N)Nc1nc(C(C)(C)C)cs1` [Example 37, N-(4-tert-butyl-1,3-thiazole-2-yl)-N′-(2-methoxybenzyl)guanidine (2E)-But-2-endioate] stands 50 to 500 nM; under `COc1cccc(OC)c1CNC(=N)Nc1nc(-c2ccc(Cl)cc2)cs1` [Example 38, N-[4-(4-chlorophenyl)-1,3-thiazole-2-yl]-N′-(2,6-dimethoxybenzyl)guanidine], 50 to 500 nM.
The result for `COc1ccccc1CNC(=N)Nc1nc(C)cs1` [Example 39, N-(2-methoxybenzyl)-N′-(4-methyl-1,3-thiazole-2-yl)guanidine (2E)-But-2-endioate] reads less than 50 nM; that for `COc1ccccc1CNC(=N)Nc1nc(C)c(C)s1` [Example 40], less than 50 nM; that for `COc1ccccc1CNC(=N)Nc1nc(-c2ccccn2)cs1` [Example 41, N-(2-methoxybenzyl)-N′-(4-pyridine-2-yl-1,3-thiazole-2-yl)guanidine], less than 50 nM.
For the compound `COc1cccc(OC)c1CNC(=N)Nc1nc(-c2ccccn2)cs1` [Example 42, N-(2,6-dimethoxybenzyl)-N′-(4-pyridine-2-yl-1,3-thiazole-2-yl)guanidine (2E)-But-2-endioate], the Ki was less than 50 nM.
Turning to `COc1ccccc1CNC(=N)Nc1nc(-c2ccccc2Cl)cs1` [Example 43, N-[4-(2-chlorophenyl)-1,3-thiazole-2-yl]-N′-(2-methoxybenzyl)guanidine (2E)-But-2-endioate], the Ki fell in the range of 50 to 500 nM.
Consider `COc1cccc(OC)c1CNC(=N)Nc1nc(-c2ccccc2Cl)cs1` [Example 44, N-[4-(2-chlorophenyl)-1,3-thiazole-2-yl]-N′-(2,6-dimethoxybenzyl)guanidine], for which the Ki was less than 50 nM.
With `COc1cccc(OC)c1CNC(=N)Nc1nc(-c2ccncc2)cs1` [Example 45, N-(2,6-dimethoxybenzyl)-N′-(4-pyridine-4-yl-1,3-thiazole-2-yl)guanidine], the Ki is less than 50 nM.
As for `COc1ccccc1CNC(=N)Nc1nc(-c2ccncc2)cs1` [Example 46, N-(2-methoxybenzyl)-N′-(4-pyridine-4-yl-1,3-thiazole-2-yl)guanidine], the inhibition constant Ki is less than 50 nM.
Under `COc1ccccc1CNC(=N)Nc1nc(-c2cccnc2)cs1` [Example 48, N-(2-methoxybenzyl)-N′-(4-pyridine-3-yl-1,3-thiazole-2-yl)guanidine] stands 50 to 500 nM; under `COC(=O)Cc1csc(NC(=N)NCc2c(OC)cccc2OC)n1` [Example 49, Methyl-(2-{[[(2,6-dimethoxybenzyl)amino](imino)methyl]amino}-1,3-thiazole-4-yl)acetate], less than 50 nM.
As to `COc1cccc(OC)c1CNC(=N)Nc1nc(-c2cccnc2)cs1` [Example 50, N-(2,6-dimethoxybenzyl)-N′-(4-pyridine-3-yl-1,3-thiazole-2-yl)guanidine acetate], the Ki was less than 50 nM.
Under `COc1ccccc1CNC(=N)Nc1nc(C(F)(F)F)cs1` [Example 52, N-(2-methoxybenzyl)-N′-[4-(trifluoromethyl)-1,3-thiazole-2-yl]guanidine (2E)-But-2-endioate] stands more than 500 nM; under `COc1cccc(OC)c1CNC(=N)Nc1nc(C(F)(F)F)cs1` [Example 53, N-(2,6-dimethoxybenzyl)-N′-[4-(trifluoromethyl)-1,3-thiazole-2-yl]guanidine], 50 to 500 nM.
Regarding `COc1ccccc1CNC(=N)Nc1ncc(C)s1` [Example 54, N-(2-methoxybenzyl)-N′-(5-methyl-1,3-thiazole-2-yl)guanidine (2E)-But-2-endioate], the inhibitory constant (Ki) is less than 50 nM.
The result for `COc1cccc(OC)c1CNC(=N)Nc1ncc(C)s1` [Example 55, N-(2,6-dimethoxybenzyl)-N′-(5-methyl-1,3-thiazole-2-yl)guanidine] reads less than 50 nM; that for `COc1cccc(OC)c1CNC(=N)Nc1nc(-c2ccc(F)cc2)cs1` [Example 56, N-(2,6-dimethoxybenzyl)-N′-[4-(4-fluorophenyl)-1,3-thiazole-2-yl]guanidine], less than 50 nM.
The result for `COc1cccc(OC)c1CNC(=N)Nc1nc(-c2ccc(C)cc2)cs1` [Example 57, N-(2,6-dimethoxybenzyl)-N′-[4-(4-methylphenyl)-1,3-thiazole-2-yl]guanidine] reads less than 50 nM.
Under `COc1ccc(-c2csc(NC(=N)NCc3c(OC)cccc3OC)n2)cc1` [Example 58, N-(2,6-dimethoxybenzyl)-N′-[4-(4-methoxyphenyl)-1,3-thiazole-2-yl]guanidine] stands less than 50 nM; under `COc1cccc(F)c1CNC(=N)Nc1nc(-c2ccccc2)cs1` [Example 59, N-(2-fluoro-6-methoxybenzyl)-N′-(4-phenyl-1,3-thiazole-2-yl)guanidine], less than 50 nM; under `COc1cccc(OC)c1CNC(=N)Nc1nc(-c2ccc(C#N)cc2)cs1` [Example 60, N-[4-(4-cyanophenyl)-1,3-thiazole-2-yl]-N′-(2,6-dimethoxybenzyl)guanidine], less than 50 nM.
As to `COc1cccc(-c2csc(NC(=N)NCc3c(OC)cccc3OC)n2)c1` [Example 61, N-(2,6-dimethoxybenzyl)-N′-[4-(3-methoxyphenyl)-1,3-thiazole-2-yl]guanidine], the Ki is less than 50 nM.
The result for `CCN(CC)c1ccc(-c2csc(NC(=N)NCc3c(OC)cccc3OC)n2)cc1` [Example 62, N-{4-[4-(diethylamino)phenyl]-1,3-thiazole-2-yl}-N′-(2,6-dimethoxybenzyl)guanidine] reads 50 to 500 nM; that for `COc1cccc(OC)c1CNC(=N)Nc1nc(-c2ccc(N3CCCC3)cc2)cs1` [Example 63, N-(2,6-dimethoxybenzyl)-N′-[4-(4-pyrrolidine-1-ylphenyl)-1,3-thiazole-2-yl]guanidine hydrobromide], less than 50 nM.
Consider `COc1cccc(OC)c1CNC(=N)Nc1nc(-c2ccc(OC(F)(F)F)cc2)cs1` [Example 64, N-(2,6-dimethoxybenzyl)-N′-{4-[4-(trifluoromethoxy)phenyl]-1,3-thiazole-2-yl}guanidine hydrobromide], for which the Ki was less than 50 nM.
The result for `COc1cccc(OC)c1CNC(=N)Nc1nc(-c2ccc(N3CCOCC3)cc2)cs1` [Example 65, N-(2,6-dimethoxybenzyl)-N′-[4-(4-morpholine-4-ylphenyl)-1,3-thiazole-2-yl]guanidine hydrobromide] reads less than 50 nM.
